Earlier results as cited in US20080171795A1, “Novel Inter and Intra Multilamellar Vesicular Composition” (LIFE-CARE INNOVATIONS PVT. LTD., priority 2005, published 2008).
Read-outs that look alike come from different tables or passages of the source.

Assays:
[1] = topical, skin with impaired stratum corneum barrier
[2] = test system: psoriasis; settings: compared with dithranol

Row | SMILES | Solubility (in acetone) | Solubility (in alcohol, ether, glacial acetic acid) | Solubility (in dilute solution of alkali hydroxides) | Solubility (in methylene chloride, chloroform) | Solubility (in water) | Solubility (in water, listed as dithranol) | Time to penetrate into the skin [1] | Efficacy [2] | Irritancy and staining [2]
1 | O=C1c2c(O)cccc2Cc2cccc(O)c21 [Dithranol, 1,8-dihydroxyanthrone] | alcohol, ether, glacial acetic acid, sparingly | slightly soluble | chloroform. dissolves in dilute solution of alkali | soluble in acetone, soluble in methylene chloride, | Practically insoluble | insoluble in water | 30 min | – | –
2 | CCCC(=O)C1c2cccc(O)c2C(=O)c2c(O)cccc21 [butantrone, 10-butyryldithranol] | – | – | – | – | – | – | – | compromised | reduced irritancy and staining
3 | CC(=O)Oc1cccc2cc3cccc(OC(C)=O)c3c(OC(C)=O)c12 [triacetyldithranol] | – | – | – | – | – | – | – | compromised | reduced irritancy and staining
